Measured values: ChEMBL document CHEMBL4387754, “Chemical modification-mediated optimisation of bronchodilatory activity of mepenzolate, a muscarinic receptor antagonist with anti-inflammatory activity” (Bioorg Med Chem, 2019)

Legend:
[1] = Plasma concentration in ICR mouse at 10 mg/kg administered intratracheally measured after 1 min by RP-HPLC analysis; format: ADME, organism-based; settings: inhaled or intranasal
[2] = Plasma concentration in ICR mouse at 7.5 mg/kg, iv measured after 1 min by RP-HPLC analysis; format: ADME, organism-based

## C[N+]1(C)[C@@H]2C[C@@H](OC(=O)C(O)(c3cccs3)c3cccs3)C[C@H]1[C@@H]1O[C@@H]12.[Br-]
[1]
  concentration at 1 min: 3000 ng/mL
[2]
  concentration at 1 min: 40000 ng/mL
